Assay results taken from US20210198248A1, “FUMARATE SALT OF 5-((5-METHYL-2-((3,4,5-[…])AMINO)PYRIMIDIN-4-YL)AMINO)-BENZO[D]OXAZOL-2(3H)-ONE” (ASTRAZENECA AB, priority 2018, published 2021).
Where a name gives a salt, the structure may show the parent alone.

Assays:
JAK = conditions: cell-based assay, WO 2010/085684 page 314; cited from earlier work
[1] = Dissolution measurements, μ-DISS Profiler, micronized material; assay type: physicochemical
Method: In general, 0.5 mg of the micronized material was added to the stirred dissolution media (20 mL 0.1 M acetate buffer, pH 4.5, 200 rpm, at 37° C.). The dissolution profiles were generated by measuring the UV absorbance at 280 nm wavelength. The material of interest was evaluated in triplicate.
The particle size of the materials was reduced by micronisation, as follows, using a 2″ Spiral Jet Mill or a 1″ MCOne fluid Jet Mill followed by subsequent particle size distribution (PSD) measurements.
Test substance was fed into the jet mill chamber, via a venturi feed system, by a vibratory feeder. Micronisation was achieved by particle collisions brought about by compressed gas (nitrogen) forced through angled nozzles in the jet mill chamber. Particles of different sizes develop different speeds and momentum and as the particle size is reduced the particles spiral towards the centre of the jet mill and exit via an exhaust into a collection bin. The process parameters that control the particle size, in addition to the inherent properties of the compound to be micronised, are the feed rate, grinding pressure and venturi pressure and these are summarised in Table 2 below.

increase in solubility compared to free base ([1]; at 50 minutes, 0.1 M acetate buffer pH 4.5, 37° C., micronized material) | aqueous solubility ([1]; general statement, compared to Compound (I) free base) | Compound | IC50 (JAK)
 |  | Cc1cnc(Nc2cc(C)c(C)c(C)c2)nc1Nc1ccc2oc(=O)[nH]c2c1 [Compound (I), 5-((5-methyl-2-((3,4,5-trimethylphenyl)-amino)pyrimidin-4-yl)amino)benzo[d]oxazol-2(3H)-one] | < 0.5 µM
~6 fold | high aqueous solubility | Cc1cnc(Nc2cc(C)c(C)c(C)c2)nc1Nc1ccc2oc(=O)[nH]c2c1 [hemi-fumarate salt, 5-((5-methyl-2-((3,4,5-trimethylphenyl)-amino)pyrimidin-4-yl)amino)benzo[d]oxazol-2(3H)-one hemi-fumarate Salt] | 
